# Source: BindingDB's records for doi:10.1021/bi00180a024 (Medical University of South Carolina, 1994)
# Molecular target: T1, 5-hydroxytryptamine receptor 1A (Homo sapiens, UniProt P08908)
# T1 sequence (P08908 whole entry): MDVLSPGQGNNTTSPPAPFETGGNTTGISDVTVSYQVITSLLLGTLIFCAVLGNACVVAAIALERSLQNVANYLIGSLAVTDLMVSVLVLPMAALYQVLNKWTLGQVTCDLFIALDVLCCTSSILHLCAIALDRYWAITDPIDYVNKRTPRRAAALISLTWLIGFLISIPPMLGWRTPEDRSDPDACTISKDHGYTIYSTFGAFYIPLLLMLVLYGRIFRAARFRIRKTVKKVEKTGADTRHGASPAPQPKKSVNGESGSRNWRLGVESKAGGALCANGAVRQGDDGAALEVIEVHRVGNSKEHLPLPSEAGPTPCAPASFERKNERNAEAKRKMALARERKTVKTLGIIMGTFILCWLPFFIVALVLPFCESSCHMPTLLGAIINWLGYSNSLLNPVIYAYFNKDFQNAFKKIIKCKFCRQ
structure (smiles),measurement,value
"O=C1c2ccccc2S(=O)(=O)N1CCCCN1CCN(c2ncccn2)CC1 [1,1-Dioxo-2-[4-(4-pyrimidin-2-yl-piperazin-1-yl)-butyl]-1,2-dihydro-1lambda*6*-benzo[d]isothiazol-3-one]",Ki,130 nM
